In data set [1] the test system is leaf explants of sugarcane cultivar Q165. In words: Shoot regeneration in leaf explants on MS medium with cytokinin and auxin. The data set is classed as cell-based. Conditions: at any given concentration of NAA; Tables 7, 8 and 10. On the procedure: (§1) Top portions (about 30 cm) of shoots were cut and all leaves except the innermost 3-4 whorls were carefully removed under aseptic conditions. TS explants measuring about 1.0-2.0 mm or 5.0-6.0 mm in thickness were prepared by serial transverse sectioning of the lowermost 3-4 cm portion (just above the apical meristem) of the leaf spindle using a sharp surgical blade under sterile conditions.
Murashige & Skoog (MS) nutrient formulation supplemented with 30 g/L sucrose and 7.5 g/L Difco agar were used as the basal culture medium. Basal medium was enriched with different concentrations and combinations of (i) a cytokinin: 6-benzylaminopourine (BA) or kinetin (KIN); (ii) an auxin: α-napthaleneacetic acid (NAA); and (iii) anti-oxidants: citric acid (CA), ascorbic acid (AA), or dithiothreitol (DTT); depending on the experimental objective. The pH of the medium was adjusted to 5.7 before autoclaving for 20 minutes at 120° C. […]
Also, the concentrations of BA and NAA were varied in order to determine their influence upon shoot generation. […] The percentage of explants producing shoots were scored, as were the number of shoots produced per explant. […]

The test system of data set [2] is leaf base sections of sorghum variety New Nugget. In words: Somatic embryogenesis and shoot production in leaf base sections. Particulars: for regeneration with other hormone combinations: sorghum. The data set is classed as cell-based, Sorghum bicolor L. The text has this: Table 26: Effect of different levels of cholorophenoxyacetic acid (CPA) on somatic embryogenesis and shoot production in 1.0-2.0 mm thick leaf base sections of sorghum (Sorghum bicolor L.) variety New Nugget after 8 weeks of culture. Five to six replicates, each with 10 explants placed in “top down” orientation, were maintained for each treatment. All cultures received 16 hr light every day.
Table 27: Effect of different levels of cholorophenoxyacetic acid (CPA) and 6-benzyladenine (BA) on somatic embryogenesis and shoot production in 1.0-2.0 mm thick leaf base sections of sorghum (Sorghum bicolor l L.) variety New Nugget after 8 weeks of culture. Five to six replicates, each with 10 explants placed in “top down” orientation, were maintained for each treatment. All cultures received 16 hr light every day.
Young developing leaf sheaths (the innermost 3-4 whorls at the shoot tip) were used as the explant. Explants were preferably 1.0-2.0 mm thick transverse sections taken from the whorls. MS nutrient medium containing 3% sucrose and 7.5 g/L Davis J3 agar was used as the basal medium for all experiments. MS-based medium with several plant growth regulators was tested as a micropropagation medium.

Data set [3] relates to leaf explants of sugarcane cultivar 91N406. The data set can be described thus: Direct shoot regeneration in leaf explants on MS medium with BA and NAA. The format is cell-based. Conditions: 91N406 explants; BA 4 μM.
Description: Table 12: Direct shoot regeneration in leaf explants (1-2 mm thick) of sugarcane cultivar 90N876 cultured on MS medium supplemented with 6-benzyladenine (BA) and α-napthaleneacetic acid (NAA) for 8 weeks. Thirty replicates, each with 10 explants cultured in top down orientation, were maintained for each treatment. Table 13: Direct shoot regeneration in leaf explants (1-2 mm thick) of sugarcane cultivar 91N406 cultured on MS medium supplemented with 6-benzyladenie (BA) and α-napthaleneacetic acid (NAA) for 8 weeks. Five replicates, each with 10 explants cultured in top down orientation were maintained for each treatment.
as §1
Murashige & Skoog (MS) nutrient formulation supplemented with 30 g/L sucrose and 7.5 g/L Difco agar were used as the basal culture medium. […]

In data set [4] the test system is leaf whorl explants of sugarcane cultivar Q165. In words: Somatic embryogenesis / shoot regeneration in leaf whorl explants. Particulars: sugarcane leaf section cultures. The data set is classed as cell-based. On the procedure: Table 19: Morphogenic response of leaf whorl explants (1.0-2.0 mm thick) of sugarcane cultivar Q165 after 8 weeks of culture on MS medium supplemented with chlorophenoxyacetic acid (CPA). Ten replicates, each with 10 explants placed in top down orientation, were maintained for each treatment. Explants were cultured under dark condition for the initial 5-6 weeks and then transferred to light (16 hr/day) for further shoot/planlet development. C=Mostly non-embroygenic callus was produced.
Table 20: Morphogenic response of leaf whorl explants (1.0-2.0 mm thick) of sugarcane cultivar Q165 after 8 weeks of culture on MS mediun supplemented with chlorophenoxyacefic acid (CPA). Ten replicates, each with 10 explants placed in top down orientation, were maintained for each treatment. All cultures received 16 hr light every day.
Table 21: Shoot regeneration in 1.0-2.0 mm thick leaf whorl explants of sugarcane cultivar Q165 after 8 weeks of culture on MS medium containing 6-benzyladenine (BA), α-naphthaleneacetic acid (NAA) and cholorophenoxyacetic acid (CPA). Ten replicates, each with 10 explants placed in top down orientation, were maintained for each treatment. All cultures received 16 hr light every day. […]

The subject of data set [5] is inflorescence explants of sugarcane Q152. The data set can be described thus: Regeneration from inflorescence explants. The format is cell-based. Particulars: Table 18 (b) ˜8 mm pieces of main floral axis placed laterally. As for the experimental part:
Table 18: Comparison of regeneration efficiency for different sugarcane explants. Explants were (a) 2-3 mm sections of main floral axis of inflorescence; (b) ˜8 mm sections of main floral axis placed laterally on the culture medium; (c) immature floral tissues dissociated from floral axis; and (d) whole 2-3 mm sections of inflorescence oriented “top down”. B4N10=4 μM BA+10 μM NAA; B4N40=4 μM BA+40 μM NAA; B4N60=4 μM BA+60 μM NAA; 2,4D14=14 μM 2,4,D. “Top down” orientation is as previously described. Shoot frequency legend: *1-2 shoots per explant; **3-10 shoots per explant; ***greater than […] shoots per explant.
Young bolting inflorescence “stalk” tissue enveloped in developing leaves (floral and leaf components) was harvested from above the apical meristem of Q152 or Q165 sugarcane plants. Transverse sections were made to produce 2-3 mm thin sections of the tissue.
Murashige & Skoog (MS) nutrient formulation supplemented with 30 g/L sucrose and 7.5 g/L Difco agar were used as the basal culture medium. Basal medium was enriched with different concentrations and combinations of (i) a cytokinin: 6-benzylaminopourine (BA) or kinetin (KIN); (ii) an auxin: α-napthaleneacetic acid (NAA); and (iii) anti-oxidants: citric acid (CA), ascorbic acid (AA), or dithiothreitol (DTT); depending on the experimental objective. […]

Turning to `c1coc(CNc2ncnc3[nH]cnc23)c1` [KIN, kinetin], the “optimal concentration of cytokinin for shoot regeneration” value in data set [1] is 4 µM. Further, in data set [2] (added after the initial embryo formation), the “effect on shoot regeneration” value was “enhanced”.
Turning to `O=C(O)Cc1cccc2ccccc12` [NAA, α-napthaleneacetic acid], in data set [3], the “optimal concentration of NAA for shoot regeneration” value came out at 40 µM.
Regarding `COc1c(Cl)ccc(Cl)c1C(=O)O` [dicamba], the “regeneration with other hormone combinations” value in data set [2] was “unsucessful”. Further, the callus growth in data set [2] (sorghum cultures containing dicamba) was “some callus growth was seen”.
As for `Nc1c(Cl)c(Cl)nc(C(=O)O)c1Cl` [picloram], in data set [2], the “regeneration with other hormone combinations” value was “unsucessful”.
`Nc1cc(Cl)cc(C(=O)O)c1Cl` [AD, 3 amino-2,5-dichlorobenzoic acid]: in data set [4], the “morphological abnormalities in the regenerated plants” value is “developed albinos occasionally”.
Regarding `O=C(Nc1ccccc1)Nc1cnns1` [thidiazuron], in data set [2], the “regeneration with other hormone combinations” value was “unsucessful”.
Take `O=C(O)COc1ccc(Cl)cc1Cl` [2,4-D14]: in data set [5], the “Number of explants showing reg'n” value worked out at 0 and the “Percentage of explants regenerating” value came to 0%.

Source of the values: patent publication US20030180952A1, “Plant regeneration” (Sugar Research & Development Corporation, priority 2000, published 2003).
